Consider 2 substances from ChEMBL document CHEMBL6074662, “Antibacterial, Antibiofilm, and Anti-inflammatory Effects of a Novel Thrombin-Derived Peptide in Sepsis Models: Insights into Underlying Mechanisms” (J Med Chem, 2024).

Usually inhibition stands for the relative decrease from the control value, in per cent. In general, inhibition in vivo refers to the drop in the measured response relative to a control, in per cent.

The test system of data set [1] is Mus musculus. Description: Antiseptic activity in sepsis shock ICR mouse model infected with carbapenem-resistant Acinetobacter baumannii assessed as reduction in bacterial count in lungs at 1 mg/kg, ip pre-infected with bacteria followed by compound administration 1 hr post-infection measured after 16 hrs relative to control. Further details: scale not given: the % may be the effect or the level left. The format is functional.

The subject of data set [2] is Mus musculus. Put plainly: Antiseptic activity in sepsis shock ICR mouse model infected with carbapenem-resistant Acinetobacter baumannii assessed as reduction in bacterial count in kidney at 1 mg/kg, ip pre-infected with bacteria followed by compound administration 3 hrs post-infection measured after 16 hrs relative to control. The format is functional. Further details: scale not given: the % may be the effect or the level left.

A short description of data set [3]: Effect on secondary structure of drug in TFE assessed as formation of left-handed alpha-helical conformation at 150 uM by CD analysis. It counts as physicochemical.
Data set [4] deals with Toll-like receptor 4 (Homo sapiens) (UniProt O00206). Description: Inhibition of LPS-induced human TLR4 activation expressed in HEK-Blue hTLR4 cells assessed as decrease in SEAP activity at 25 uM pretreated for 1 hr followed by LPS treatment for 16 hrs by absorbance based assay relative to control. The format is cell-based. The following applies: time 17.0 hrs.
Chain of Toll-like receptor 4 (Homo sapiens) (O00206 whole entry): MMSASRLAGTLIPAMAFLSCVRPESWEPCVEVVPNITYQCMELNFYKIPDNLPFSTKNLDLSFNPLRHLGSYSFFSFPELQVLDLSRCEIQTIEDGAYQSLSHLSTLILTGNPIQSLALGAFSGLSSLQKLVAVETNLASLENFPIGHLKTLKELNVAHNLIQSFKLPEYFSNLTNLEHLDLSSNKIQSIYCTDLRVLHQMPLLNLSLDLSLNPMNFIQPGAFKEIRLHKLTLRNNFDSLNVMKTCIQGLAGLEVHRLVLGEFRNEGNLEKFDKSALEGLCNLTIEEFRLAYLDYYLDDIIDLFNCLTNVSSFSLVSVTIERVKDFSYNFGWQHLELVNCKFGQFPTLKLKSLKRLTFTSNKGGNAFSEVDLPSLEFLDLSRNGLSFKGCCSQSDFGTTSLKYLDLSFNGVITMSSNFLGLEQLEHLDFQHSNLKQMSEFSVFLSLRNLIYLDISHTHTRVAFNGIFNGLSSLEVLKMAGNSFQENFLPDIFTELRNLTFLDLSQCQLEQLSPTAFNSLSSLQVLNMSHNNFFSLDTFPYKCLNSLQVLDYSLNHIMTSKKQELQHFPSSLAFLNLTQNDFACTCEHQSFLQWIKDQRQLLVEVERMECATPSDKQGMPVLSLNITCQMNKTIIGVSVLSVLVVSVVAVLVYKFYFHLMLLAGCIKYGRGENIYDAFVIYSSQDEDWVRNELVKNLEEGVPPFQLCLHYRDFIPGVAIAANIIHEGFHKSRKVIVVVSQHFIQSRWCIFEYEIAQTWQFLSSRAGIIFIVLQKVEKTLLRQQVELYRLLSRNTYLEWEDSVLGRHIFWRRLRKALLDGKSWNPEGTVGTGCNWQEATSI
Data set [5] concerns Acinetobacter baumannii. Put plainly: Antibacterial activity against carbapenem-resistant Acinetobacter baumannii-induced sepsis shock in ICR mouse model assessed as bacterial growth inhibition in lung at 1 mg/kg, ip pretreated with compound for 1 hr followed by bacterial infection measured after 16 hrs relative to control. Conditions: time 17 hrs. The format is functional.

Data set [6] has as its system RAW264.7. Description: Displacement of FITC-labeled LPS pre-bound to surface receptors of mouse RAW264.7 cells incubated for 1 hr by flow cytometry. It counts as cell-based. Background: A flow cytometer gives signals particle by particle.
In data set [7] the test system is Mus musculus. Put plainly: Antiseptic activity in sepsis shock ICR mouse model infected with carbapenem-resistant Acinetobacter baumannii assessed as reduction in serum IL-6 level at 1 mg/kg, ip pre-infected with bacteria followed by compound administration 1 hr post-infection measured after 16 hrs relative to control. Further details: scale not given: the % may be the effect or the level left. The format is functional.

Data set [8] has as its system RAW264.7. Put plainly: Inhibition of cell binding activity of FITC-labeled LPS to surface receptors of mouse RAW264.7 cells at 8 uM incubated for 1 hr by flow cytometry. The format is cell-based.
The subject of data set [9] is Lipopolysaccharide (LPS). Put plainly: Displacement of BODIPY-TR-cadaverine from cell-free LPS (unknown origin) incubated for 30 mins by fluorescence based assay. The following applies: dose <= 32.0 µM.
The next data set concerns Pseudomonas aeruginosa. Description: Bactericidal activity against multidrug-resistant Pseudomonas aeruginosa CCARM 2095 at 0.5 to 2 uM incubated for 12 hrs by time-kill assay. The format is functional, organism-based. Conditions: dose 0.5-2 µM.
The subject of data set [10] is Mus musculus. Put plainly: Antiseptic activity in sepsis shock ICR mouse model infected with carbapenem-resistant Acinetobacter baumannii assessed as decrease in BUN level in serum at 1 mg/kg, ip pretreated with compound for 1 hr followed by bacterial infection measured after 16 hrs relative to control. It counts as functional. Further details: scale not given: the % may be the effect or the level left. The following applies: time 17 hrs.

The subject of data set [11] is Acinetobacter baumannii. Put plainly: Antibacterial activity against carbapenem-resistant Acinetobacter baumannii 1915 incubated for 24 hrs by CLSI based broth microdilution method. It counts as functional, organism-based.
Data set [12] concerns Mus musculus. Description: Antiseptic activity in sepsis shock ICR mouse model infected with carbapenem-resistant Acinetobacter baumannii assessed as reduction in bacterial count in kidney at 1 mg/kg, ip pre-infected with bacteria followed by compound administration 1 hr post-infection measured after 16 hrs relative to control. It counts as functional. Further details: scale not given: the % may be the effect or the level left.

Data set [13] has as its system Mus musculus. Put plainly: Antiseptic activity in sepsis shock ICR mouse model infected with carbapenem-resistant Acinetobacter baumannii assessed as decrease in TNF-alpha level in serum at 1 mg/kg, ip pretreated with compound for 1 hr followed by bacterial infection measured after 16 hrs relative to control. The format is functional. The following applies: time 17 hrs. Further details: scale not given: the % may be the effect or the level left.

The target in data set [14] is T1, Toll-like receptor 4 (Mus musculus) (UniProt Q9QUK6).
T1 sequence (whole entry): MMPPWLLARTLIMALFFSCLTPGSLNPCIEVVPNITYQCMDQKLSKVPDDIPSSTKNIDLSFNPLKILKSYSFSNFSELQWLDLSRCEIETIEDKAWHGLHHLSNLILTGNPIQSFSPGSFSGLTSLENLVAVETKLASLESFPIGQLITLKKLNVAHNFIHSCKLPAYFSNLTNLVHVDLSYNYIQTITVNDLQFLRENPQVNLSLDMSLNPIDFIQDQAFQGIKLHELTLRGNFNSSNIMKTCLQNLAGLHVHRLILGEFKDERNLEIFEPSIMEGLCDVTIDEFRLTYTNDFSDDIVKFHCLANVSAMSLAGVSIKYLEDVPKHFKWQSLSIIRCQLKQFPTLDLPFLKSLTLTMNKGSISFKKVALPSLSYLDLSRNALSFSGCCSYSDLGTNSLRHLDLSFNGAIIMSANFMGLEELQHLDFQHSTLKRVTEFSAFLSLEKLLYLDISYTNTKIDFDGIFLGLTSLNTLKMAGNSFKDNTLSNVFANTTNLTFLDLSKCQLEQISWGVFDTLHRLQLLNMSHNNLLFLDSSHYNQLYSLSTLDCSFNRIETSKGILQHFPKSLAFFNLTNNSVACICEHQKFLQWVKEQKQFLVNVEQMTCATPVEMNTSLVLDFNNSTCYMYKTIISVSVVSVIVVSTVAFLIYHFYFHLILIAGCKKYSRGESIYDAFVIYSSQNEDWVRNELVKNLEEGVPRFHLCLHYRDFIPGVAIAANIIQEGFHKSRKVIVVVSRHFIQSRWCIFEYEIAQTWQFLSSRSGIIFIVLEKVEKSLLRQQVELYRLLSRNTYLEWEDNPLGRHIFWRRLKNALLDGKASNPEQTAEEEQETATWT
Put plainly: Inhibition of LPS-induced TLR4 activation in mouse RAW264.7 cells assessed as decrease in JNK phosphorylation at 2 uM pretreated for 1 hr followed by LPS treatment for 30 mins by Western blot analysis relative to control. It counts as cell-based. The following applies: time 90.0 min. In general terms: Immunoblotting shows a protein as a band on a membrane.

In data set [15] the test system is Acinetobacter baumannii. Put plainly: Antibacterial activity against carbapenem-resistant Acinetobacter baumannii 1707 incubated for 24 hrs by CLSI based broth microdilution method. The format is functional, organism-based. A general note: Broth dilution looks for growth in wells or tubes with falling amounts of substance.
Data set [16] relates to Acinetobacter baumannii. Description: Antibacterial activity against carbapenem-resistant Acinetobacter baumannii-induced sepsis shock in ICR mouse model assessed as bacterial growth inhibition in kidney at 1 mg/kg, ip pretreated with compound for 1 hr followed by bacterial infection measured after 16 hrs relative to control. The format is functional. The following applies: time 17 hrs.

Data set [17] has as its system Lipopolysaccharide (LPS). Put plainly: Displacement of BODIPY-TR-cadaverine from cell-free LPS (unknown origin) at 8 uM incubated for 30 mins by fluorescence based assay relative to control.
In data set [18] the test system is Mus musculus. Put plainly: Antiseptic activity in sepsis shock ICR mouse model infected with carbapenem-resistant Acinetobacter baumannii assessed as reduction in serum IL-6 level at 1 mg/kg, ip pre-infected with bacteria followed by compound administration 3 hrs post-infection measured after 16 hrs relative to control. It counts as functional. Further details: scale not given: the % may be the effect or the level left.

Data set [19] concerns the target T1, Toll-like receptor 4 (Mus musculus). Put plainly: Inhibition of LPS-induced TLR4 activation in mouse RAW264.7 cells assessed as decrease in phosphorylated NF-kappaB nuclear translocation at 10 uM pretreated for 1 hr followed by LPS treatment for 30 mins by CLSM analysis. It counts as cell-based. The following applies: time 90.0 min.
In data set [20] the test system is Mus musculus. Description: Antiseptic activity in sepsis shock ICR mouse model infected with carbapenem-resistant Acinetobacter baumannii assessed as decrease in IL-1beta level in serum at 1 mg/kg, ip pretreated with compound for 1 hr followed by bacterial infection measured after 16 hrs relative to control. The format is functional. Further details: scale not given: the % may be the effect or the level left. The following applies: time 17 hrs.

The test system of a further data set is Staphylococcus aureus. Description: Bactericidal activity against methicillin-resistant Staphylococcus aureus CCARM 3089 at 0.5 to 2 uM incubated for 12 hrs by time-kill assay. It counts as functional, organism-based. Conditions: dose 0.5-2 µM.
Data set [21] is described as follows: Proteolytic stability of compound assessed as trypsin (unknown origin)-mediated drug degradation at 150 uM incubated for 24 hrs by RP-HPLC analysis. It counts as ADME. The following applies: human.

Calls of active or inactive are those of the source. No cut-off for these calls is given here.

Regarding H-GVFRLKKWLKKVKKWGK-NH2, the Activity with Mus musculus [1] was 92.3%; in the data set on Mus musculus [2], 91.8%; in data set [3] it was “Active”; with RAW264.7 [6], “Active; Activity Similar To Ll-37”; in the data set on Mus musculus [7], 97.9%; in the data set on Lipopolysaccharide (LPS) [9], “Dose-dependent-effect; Activity Similar To Ll-37”. Also, the Activity in the data set with Mus musculus [10] is 56.7%; in the data set on Mus musculus [12], 96.7%; in the data set with Mus musculus [13], 49.4%; in the data set with Lipopolysaccharide (LPS) [17], 56%; in the data set with Mus musculus [18] it was 14.8%; in the data set with Mus musculus [20], 68.7%. For the same substance, the inhibition is 100% in [4], “Active; Activity Comparable To Ll-37 And Pmb” in the data set with RAW264.7 [8] and 52% in data set [14]. The inhibition in vivo at 1 mg/kg in the data set on Acinetobacter baumannii [5] was found to be 96.5%; with Acinetobacter baumannii [16], 88.1%. Further, the outcome in the data set on Pseudomonas aeruginosa was inactive. Besides, the outcome in the data set with Acinetobacter baumannii [11] and with Acinetobacter baumannii [15] was Active. Moreover, the inhibition entry in [19] was “Active”.

On to H-GVFRLKKWIKKVIKKWGK-NH2, for which the result in the data set with Staphylococcus aureus was inactive. The Stability entry in data set [21] is “Unstable”.
